Data reported in patent US5534554A, “Sucrose ester-C20 to C28 alcohol formulations” (priority 1994, dated 1996).

Assays:
[1] = tested on: Herpes simplex virus type 1; assay: Inhibition of HSV type 1 infectivity in simian and human cell lines; type: cell-based, HSV-1
Friend virus [2] = assay: Friend virus-induced leukemia and viremia in mice; type: in vivo, BALB/c mice; settings: intravenous
Friend Virus [3] = assay: Replication of Friend Virus in vitro in primary embryo fibroblast cultures; type: cell-based, murine
[4] = tested on: recurrent herpes genitalis; assay: Study B: trial in female patients with recurrent herpes genitalis; type: in vivo, human; settings: all patients
From the text: (§1) Two clinical efficacy studies have been completed. Study A was a randomized, double-blind, placebo-controlled Phase 2 study in 63 patients (male and female) with recurrent herpes labialis. All of the 31 n-docosanol 10% cream-treated patients in the herpes labialis study, Study A, completed their treatment; 2 of those 31 patients reported a burning or stinging sensation after application of the cream. […] Study B was a randomized, double-blind, placebo-controlled trial in 44 female patients with recurrent herpes genitalis.
In the first clinical study, sixty female patients with recurrent herpes genitalis entered the study while symptom-free and not in a prodromal stage. […]
Three pain analyses were conducted, based on patients' self-assessment of pain: time to sustained "no pain"; time to first "no pain"; and time to first reduction of pain. Time to sustained "no pain" was measured from the time of first pain at application to the time when 1 ) pain was scored as "no pain" for a minimum of 2 consecutive recordings; and 2) during the remainder of the episode, additional pain recordings were no more frequent and severe than 2 separated episodes of 2 consecutive recordings of "mild" pain. […] Time to first reduction in pain was measured from the time of first pain at application to the first time when a decrease in pain level was noted, relative to the previous assessment. […]

HSV [5] = assay: Inhibition of HSV-induced plaques in Vero versus MDBK cells; type: cell-based
Human Herpesvirus-6 = assay: Antiviral activity against human herpesvirus-6; type: cell-based
Varicella Zoster Virus = assay: Antiviral activity against varicella zoster virus; type: cell-based; settings: Table 6, human viruses
HSV [6] = assay: Secondary plaque assay of infectious virions; type: cell-based; settings: secondary plaque assay cultures
From the text: Finally, the replication of infectious virions as measured in secondary plaque assay cultures is markedly diminished by 99% or more in n-docosanol-treated cells.

[7] = tested on: recurrent herpes labialis; assay: Study A: Phase 2 study in recurrent herpes labialis; type: in vivo, human; settings: for time to healing, mean: 10% cream, all treatment episodes
From the text: as §1
Sixty five patients (aged 18-60) took part in the Study A, 32 patients were initially randomized to receive 10% n-docosanol cream and 33 were initially randomized to receive placebo cream. Treatment was patient-initiated, and treatment initiation was defined as `early` if the treatment started at prodrome or erythema stage and as `late` if started at the papule stage or later. Two patients were excluded from the analysis. Of the 63 evaluable patients, 22 were entered into the cross-over phase of the study. In addition, 13 patients treated more than one episode with the same study medication. Therefore, a total of 98 herpes episodes--48 treated with 10% n-docosanol cream and 50 treated with placebo cream--were analyzed.

HSV-2 = type: cell-based
virus = assay: Direct virucidal activity; settings: n-docosanol suspension
From the text: The collective implications of the results of the studies are that the compound appears to interfere with one or more of the common pathways of viral entry into the cell and migration to the nucleus of infected target cells.

Vero cells [8] = assay: Metabolism of n-[14C]-docosanol in Vero cells (TLC); settings: sodium azide and 2-deoxyglucose
Influenza A = assay: Antiviral activity against influenza A; type: cell-based; settings: Table 6, human viruses
Vero cells [9] = tested on: Vero cells

`CCCCCCCCCCCCCCCCCCCCCCO` [n-docosanol] was tested. Which “susceptibility to antiviral activity: Herpes Simplex - 1” value ([1]; Table 6) did it give?
Its value is “susceptible”.

What about the “inhibitory activity in vitro” value ([1]; suspension in Pluronic F-68) of the same compound?
Its value is “excellent inhibitory activity”.

What about the “inhibition of development of leukemic foci” value (Friend virus [2]; FIG. 12 Panel A) of the same compound?
The value was “very clear dose-related inhibitory affect”.

What about the “inhibition of development of viremia” value (Friend virus [2]; FIG. 12 Panel B) of the same compound?
The value was “very clear dose-related inhibitory affect”.

What about the “susceptibility to antiviral activity: Friend Leukemia Virus” value (Friend Virus [3]; Table 6, murine viruses) of the same compound?
The value was “susceptible”.

And the “activity against replication of Friend Virus in vitro” value (Friend Virus [3]; primary embryo fibroblast cultures)?
The value was “very potent activity”.

And the “average healing time based on patient ratings” value ([4]; 10% cream, placebo 4.5)?
Its value is 5.6 days.

What about the “difference in mean time to healing versus placebo” value ([4]; p=0.2703) of the same compound?
The value was “no statistically significant difference”.

What about the “effectiveness in inhibiting HSV-induced plaques, Vero relative to MDBK cells” value (HSV [5]) of the same compound?
The value was 3-4 fold.

What about the “inhibition of in vitro replication of human herpes virus 6” value (Human Herpesvirus-6) of the same compound?
The value was “inhibits in vitro replication”.

What about the “susceptibility to antiviral activity: Human Herpesvirus-6” value (Human Herpesvirus-6; Table 6, human viruses) of the same compound?
Its value is “susceptible”.

And the “susceptibility to antiviral activity: Varicella Zoster Virus” value (Varicella Zoster Virus)?
Its value is “susceptible”.

And the “decrease of replication of infectious virions” value (HSV [6])?
The value was ≥ 99%.

And the “time to healing, mean” value ([7]; all treatments)?
Its value is 5.7 days.

What about the “time to healing, mean” value ([7]; early treatment) of the same compound?
Its value is 3.4 days.

What about the “reduction in mean overall healing time versus placebo” value ([7]; all 98 episodes, P=0.02) of the same compound?
Its value is 1.6 days.

What about the “reduction in mean healing time” value ([7]; all episodes, early treatment, P=0.05) of the same compound?
The value was 3.3 days.

What about the “difference in healing time, late treatment” value ([7]; cross-over portion, P=0.03) of the same compound?
Its value is “significant difference in favor of n-docosanol”.

And the “internalization of HSV complete by 20 minutes” value (HSV-2; after shift to 37° C.)?
The value was “less than 40%”.

What about the “time to completion of internalization” value (HSV-2; after shift to 37° C.) of the same compound?
Its value is “more than 1 hour”.

What about the “persistence of bound HSV virions on the cell surface” value (HSV-2; in the presence of n-docosanol) of the same compound?
The value was “remain on the cell surface for a prolonged time period”.

What about the direct virucidal activity (virus) of the same compound?
Its direct virucidal activity is “no direct virucidal activity”.

And the “reduction of metabolic conversion into polar metabolites by energy poisons” value (Vero cells [8])?
The value was 80%.

What about the “susceptibility to antiviral activity: Influenza A” value (Influenza A) of the same compound?
The value was “susceptible”.

What about the “fraction of total n-docosanol cell-associated” value (Vero cells [9]) of the same compound?
The value was “less than 1%”.

What about the molecules per cell (Vero cells [9]) of the same compound?
The molecules per cell was ~8×10^9 molecules per cell.

What about the “radioactive compound in cell membranes” value (Vero cells [9]) of the same compound?
Its value is 75%.

And the “radioactive compound in nuclear fractions” value (Vero cells [9])?
Its value is “less than 1%”.

What about the “reversibility of cell association” value (Vero cells [9]) of the same compound?
Its value is “irreversible”.

And the “time of peak uptake per cell” value (Vero cells [9])?
Its value is 6 to 12 h.

And the “total uptake, Tetronic versus Pluronic suspension” value (Vero cells [9])?
The value was “equivalent”.
